This note sets out measurements from patent publication US20250154686A1, “COMPOUND LIBRARY” (CHUGAI SEIYAKU KABUSHIKI KAISHA, priority 2021, published 2025).

This assay concerns the target T1, Bcl-2 protein (Recombinant Human Bcl-2 Protein) (Homo sapiens, UniProt P10415).
T1 construct: purchased Novus Biologicals NBP2-34889
The assay can be described thus: AS-MS evaluation of binding of the Example 4 mixture library (1200 compounds/well) to Bcl-2, ASMS ratio (%). Conditions: mixture library, value belongs to the MS peak assigned to the compound; for ASMS ratio (%) n = 1: replicate n = 1; for ASMS ratio (%) n = 2: replicate n = 2. Summed up:
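Recombinant human Bcl-2 at 20 μM final was exposed to a 1200-member compound pool (20 nM per compound) in pH 7.4 Tris-HCl buffer containing NaCl, Tween-20 and DTT. After 1 h at 23 °C, protein–ligand complexes passed SEC spin columns; LC/MS signals were compared with protein-free standard and blank samples to give ASMS ratio.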

T1 sequence (P10415 whole entry): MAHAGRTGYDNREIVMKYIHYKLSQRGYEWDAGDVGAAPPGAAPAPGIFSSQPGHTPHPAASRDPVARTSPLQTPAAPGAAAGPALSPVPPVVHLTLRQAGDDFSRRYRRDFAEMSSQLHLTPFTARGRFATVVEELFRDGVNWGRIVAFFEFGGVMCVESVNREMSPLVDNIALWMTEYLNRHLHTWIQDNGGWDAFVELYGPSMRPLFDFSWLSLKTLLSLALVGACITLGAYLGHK

On to `CCOc1cccc(-c2ccc(CN3CCN(c4ccc(C(=O)NS(C)(=O)=O)cc4)CC3)c3ccccc23)c1` [Compound B2I065-01, 4-[4-[[4-(3-Ethoxyphenyl)naphthalen-1-yl]methyl]piperazin-1-yl]-N-methylsulfonylbenzamide], for which the “ASMS ratio (%) n = 1” value came out at 0.0% and the “ASMS ratio (%) n = 2” value was 0.0%.
As for `CCOc1cncc(-c2ccc(CN3CCN(c4ccc(C(=O)NS(C)(=O)=O)cc4)CC3)c3ccccc23)c1` [Compound B2I066-01, 4-[4-[[4-(5-Ethoxypyridin-3-yl)naphthalen-1-yl]methyl]piperazin-1-yl]-N-methylsulfonylbenzamide], the “ASMS ratio (%) n = 1” value came out at 0.0% and the “ASMS ratio (%) n = 2” value came to 0.0%.
For the molecule `CCOc1cccc(-c2csc(CN3CCN(c4ccc(C(=O)NS(C)(=O)=O)cc4)CC3)c2)c1` [Compound B2I067-01, 4-[4-[[4-(3-Ethoxyphenyl)thiophen-2-yl]methyl]piperazin-1-yl]-N-methylsulfonylbenzamide], the “ASMS ratio (%) n = 1” value came to 0.0% and the “ASMS ratio (%) n = 2” value is given as 0.0%.
For `CCOc1cncc(-c2csc(CN3CCN(c4ccc(C(=O)NS(C)(=O)=O)cc4)CC3)c2)c1` [Compound B2I068-01, 4-[4-[[4-(5-Ethoxypyridin-3-yl)thiophen-2-yl]methyl]piperazin-1-yl]-N-methylsulfonylbenzamide], the “ASMS ratio (%) n = 1” value stood at 0.0% and the “ASMS ratio (%) n = 2” value was determined as 0.0%.
Consider `CCOc1cccc(C#Cc2ccccc2CN2CCN(c3ccc(C(=O)NS(C)(=O)=O)cc3)CC2)c1` [Compound B2I069-01, 4-[4-[[2-[2-(3-Ethoxyphenyl)ethynyl]phenyl]methyl]piperazin-1-yl]-N-methylsulfonylbenzamide], for which the “ASMS ratio (%) n = 1” value stood at 0.0% and the “ASMS ratio (%) n = 2” value is reported as −2.2%.
For the molecule `CCOc1cncc(C#Cc2ccccc2CN2CCN(c3ccc(C(=O)NS(C)(=O)=O)cc3)CC2)c1` [Compound B2I070-01, 4-[4-[[2-[2-(5-Ethoxypyridin-3-yl)ethynyl]phenyl]methyl]piperazin-1-yl]-N-methylsulfonylbenzamide], the “ASMS ratio (%) n = 2” value came out at 0.0%.
Consider `CCOc1cccc(-c2ccccc2CN2CCN(c3ccc(C(=O)NS(C)(=O)=O)nn3)CC2)c1` [Compound B2I071-01, 6-[4-[[2-(3-Ethoxyphenyl)phenyl]methyl]piperazin-1-yl]-N-methylsulfonylpyridazine-3-carboxamide], for which the “ASMS ratio (%) n = 1” value is reported as −1.2% and the “ASMS ratio (%) n = 2” value is −1.9%.
On to `CCOc1cncc(-c2ccccc2CN2CCN(c3ccc(C(=O)NS(C)(=O)=O)nn3)CC2)c1` [Compound B2I072-01, 6-[4-[[2-(5-Ethoxypyridin-3-yl)phenyl]methyl]piperazin-1-yl]-N-methylsulfonylpyridazine-3-carboxamide], for which the “ASMS ratio (%) n = 1” value stood at 0.8% and the “ASMS ratio (%) n = 2” value worked out at 1.3%.
For `CCOc1cccc(-c2ccc(CN3CCN(c4ccc(C(=O)NS(C)(=O)=O)nn4)CC3)cc2C)c1` [Compound B2I073-01, 6-[4-[[4-(3-Ethoxyphenyl)-3-methylphenyl]methyl]piperazin-1-yl]-N-methylsulfonylpyridazine-3-carboxamide] the same measures were 0.0% and 0.0%.
For the molecule `CCOc1cncc(-c2ccc(CN3CCN(c4ccc(C(=O)NS(C)(=O)=O)nn4)CC3)cc2C)c1` [Compound B2I074-01, 6-[4-[[4-(5-Ethoxypyridin-3-yl)-3-methylphenyl]methyl]piperazin-1-yl]-N-methylsulfonylpyridazine-3-carboxamide], the “ASMS ratio (%) n = 1” value was 0.0% and the “ASMS ratio (%) n = 2” value is given as −8.4%.
Taken in the same sequence, the figures for `CCOc1cccc(-c2ccc(CN3CCN(c4ccc(C(=O)NS(C)(=O)=O)nn4)CC3)c(CC)c2)c1` [Compound B2I075-01, 6-[4-[[4-(3-Ethoxyphenyl)-2-ethylphenyl]methyl]piperazin-1-yl]-N-methylsulfonylpyridazine-3-carboxamide] were 0.0% and 0.0%.
Taken in the same sequence, the figures for `CCOc1cncc(-c2ccc(CN3CCN(c4ccc(C(=O)NS(C)(=O)=O)nn4)CC3)c(CC)c2)c1` [Compound B2I076-01, 6-[4-[[4-(5-Ethoxypyridin-3-yl)-2-ethylphenyl]methyl]piperazin-1-yl]-N-methylsulfonylpyridazine-3-carboxamide] were 0.2% and −3.2%.
Consider `CCOc1cccc(-c2ccc(CN3CCN(c4ccc(C(=O)NS(C)(=O)=O)nn4)CC3)cc2F)c1` [Compound B2I077-01, 6-[4-[[4-(3-Ethoxyphenyl)-3-fluorophenyl]methyl]piperazin-1-yl]-N-methylsulfonylpyridazine-3-carboxamide], for which the “ASMS ratio (%) n = 1” value is 0.0% and the “ASMS ratio (%) n = 2” value came to 0.0%.
As to `CCOc1cncc(-c2ccc(CN3CCN(c4ccc(C(=O)NS(C)(=O)=O)nn4)CC3)cc2F)c1` [Compound B2I078-01, 6-[4-[[4-(5-Ethoxypyridin-3-yl)-3-fluorophenyl]methyl]piperazin-1-yl]-N-methylsulfonylpyridazine-3-carboxamide], the “ASMS ratio (%) n = 1” value is on record as 0.0% and the “ASMS ratio (%) n = 2” value is on record as 0.0%.
Regarding `CCOc1cccc(-c2ccc(CN3CCN(c4ccc(C(=O)NS(C)(=O)=O)nn4)CC3)c(OC)c2)c1` [Compound B2I079-01, 6-[4-[[4-(3-Ethoxyphenyl)-2-methoxyphenyl]methyl]piperazin-1-yl]-N-methylsulfonylpyridazine-3-carboxamide], the “ASMS ratio (%) n = 1” value was found to be 0.0% and the “ASMS ratio (%) n = 2” value is 0.0%.
Regarding `CCOc1cncc(-c2ccc(CN3CCN(c4ccc(C(=O)NS(C)(=O)=O)nn4)CC3)c(OC)c2)c1` [Compound B2I080-01, 6-[4-[[4-(5-Ethoxypyridin-3-yl)-2-methoxyphenyl]methyl]piperazin-1-yl]-N-methylsulfonylpyridazine-3-carboxamide], the “ASMS ratio (%) n = 1” value is recorded as 0.0%.
In the case of `CCOc1cccc(-c2cc(CN3CCN(c4ccc(C(=O)NS(C)(=O)=O)nn4)CC3)cc(OCC)c2)c1` [Compound B2I081-01, 6-[4-[[3-Ethoxy-5-(3-ethoxyphenyl)phenyl]methyl]piperazin-1-yl]-N-methylsulfonylpyridazine-3-carboxamide], the “ASMS ratio (%) n = 1” value worked out at 0.0% and the “ASMS ratio (%) n = 2” value stood at 0.0%.
As to `CCOc1cncc(-c2cc(CN3CCN(c4ccc(C(=O)NS(C)(=O)=O)nn4)CC3)cc(OCC)c2)c1` [Compound B2I082-01, 6-[4-[[3-Ethoxy-5-(5-ethoxypyridin-3-yl)phenyl]methyl]piperazin-1-yl]-N-methylsulfonylpyridazine-3-carboxamide], the “ASMS ratio (%) n = 1” value is 0.0% and the “ASMS ratio (%) n = 2” value stood at 1.9%.
Consider `CCOc1cccc(-c2cc(CN3CCN(c4ccc(C(=O)NS(C)(=O)=O)nn4)CC3)cc(OC(C)C)c2)c1` [Compound B2I083-01, 6-[4-[[3-(3-Ethoxyphenyl)-5-propan-2-yloxyphenyl]methyl]piperazin-1-yl]-N-methylsulfonylpyridazine-3-carboxamide], for which the “ASMS ratio (%) n = 1” value is 0.0% and the “ASMS ratio (%) n = 2” value is recorded as 0.0%.
In the case of `CCOc1cncc(-c2cc(CN3CCN(c4ccc(C(=O)NS(C)(=O)=O)nn4)CC3)cc(OC(C)C)c2)c1` [Compound B2I084-01, 6-[4-[[3-(5-Ethoxypyridin-3-yl)-5-propan-2-yloxyphenyl]methyl]piperazin-1-yl]-N-methylsulfonylpyridazine-3-carboxamide], the “ASMS ratio (%) n = 1” value is given as −0.9% and the “ASMS ratio (%) n = 2” value is on record as −1.5%.
For `CCOc1cccc(-c2cc(OC)c(CN3CCN(c4ccc(C(=O)NS(C)(=O)=O)nn4)CC3)c(OC)c2)c1` [Compound B2I085-01, 6-[4-[[4-(3-Ethoxyphenyl)-2,6-dimethoxyphenyl]methyl]piperazin-1-yl]-N-methylsulfonylpyridazine-3-carboxamide] the same measures were 0.0% and 0.0%.
For `CCOc1cncc(-c2cc(OC)c(CN3CCN(c4ccc(C(=O)NS(C)(=O)=O)nn4)CC3)c(OC)c2)c1` [Compound B2I086-01, 6-[4-[[4-(5-Ethoxypyridin-3-yl)-2,6-dimethoxyphenyl]methyl]piperazin-1-yl]-N-methylsulfonylpyridazine-3-carboxamide] the same measures were 0.0% and 0.0%.
Taken in the same sequence, the figures for `CCOc1cccc(-c2cc(CN3CCN(c4ccc(C(=O)NS(C)(=O)=O)nn4)CC3)cc(C(F)(F)F)c2)c1` [Compound B2I087-01, 6-[4-[[3-(3-Ethoxyphenyl)-5-(trifluoromethyl)phenyl]methyl]piperazin-1-yl]-N-methylsulfonylpyridazine-3-carboxamide] were 1.3% and −0.9%.
As for `CCOc1cncc(-c2cc(CN3CCN(c4ccc(C(=O)NS(C)(=O)=O)nn4)CC3)cc(C(F)(F)F)c2)c1` [Compound B2I088-01, 6-[4-[[3-(5-Ethoxypyridin-3-yl)-5-(trifluoromethyl)phenyl]methyl]piperazin-1-yl]-N-methylsulfonylpyridazine-3-carboxamide], the “ASMS ratio (%) n = 1” value worked out at 0.0% and the “ASMS ratio (%) n = 2” value is 0.0%.
Turning to `CCOc1cccc(-c2cc(CN3CCN(c4ccc(C(=O)NS(C)(=O)=O)nn4)CC3)cc(OC(F)(F)F)c2)c1` [Compound B2I089-01, 6-[4-[[3-(3-Ethoxyphenyl)-5-(trifluoromethoxy)phenyl]methyl]piperazin-1-yl]-N-methylsulfonylpyridazine-3-carboxamide], the “ASMS ratio (%) n = 1” value is 1.4% and the “ASMS ratio (%) n = 2” value was 0.0%.
